According to patent US20260053811A1, “METHODS OF TREATING HYPERTENSION IN OBESE SUBJECTS” (Mineralys Therapeutics, Inc., priority 2022, published 2026):
Marks after values point to notes of the source that are not given here.

System: hypertensive subjects
Assay: Seated automated office blood pressure (AOBP) in randomized, placebo-controlled, dose-ranging study
Format: in vivo, human
Design: Difference from placebo in change in blood pressure: unit not given here
Method: A randomized, double-blinded, placebo-controlled, dose-ranging, multicenter study was conducted to evaluate the effect of orally administered Compound A HBr on blood pressure for the treatment of hypertension in male and female subjects ≥18 years of age.
The study consists of two parts. For enrollment into Part 1 of the study, a subject's value of plasma renin activity (PRA) must be ≤1 ng/mL/h based on morning measurement. If the value of PRA >1 ng/mL/h based on morning measurement, then subjects may be eligible to enter Part 2 of the study.
For Part 1, 163 enrolled subjects ≥18 years of age were randomized into 6 equal treatment groups (1:1:1:1:1:1) to 12.5 mg BID, 25 mg BID, 12.5 mg QD, 50 mg QD, 100 mg QD, or placebo. After a review of interim clinical data, the 2 lowest dose levels (12.5 mg QD and 12.5 mg BID) were stopped for future randomization due to a lack of consistent meaningful reduction of blood pressure, but the patients randomized to that point remained in the study through completion. Thus, after the review of interim clinical data, subjects were randomized into 4 equal treatment groups (1:1:1:1) to 25 mg BID, 50 mg QD, 100 mg QD, or placebo.
For Part 2, 36 enrolled subjects ≥18 years of age were randomized (5:1) to either 100 mg QD Compound A HBr or placebo such that the Compound A HBr treatment group consisted of approximately 30 subjects and the placebo treatment group will consist of approximately 6 subjects.
Subjects orally administered the assigned study drug (Compound A HBr or placebo) according to the assigned dosing regimen for 8 weeks beginning on Study Day 1. All subjects in Part 1 (regardless of dosing group) received BID dosing to preserve the integrity of the blind; active drug is administered as the morning dose for all QD dose groups. Subjects returned to the research facility or were seen by the clinical investigator or approved home health care professional at the end of Study Weeks 1, 2, 3, 4, 5, 6, 7, and 8 (±2 days) for protocol-defined efficacy and safety assessments and procedures, assessment of adverse events (AEs), and confirmation of compliance with study drug usage. Subjects also completed a telephone visit and blood pressure (BP) check at home approximately 3 days post last dose of study drug. Subjects attended up to 14 full clinic visits, including a pre-Screening visit, a Screening/start of Placebo Run-in visit, a second visit during Placebo Run-in, a clinic visit to initiate the ABPM procedure, a Randomization visit, 8 weekly visits during double-blind treatment, and an end-of-study visit scheduled 4 weeks after the last study treatment for final efficacy and safety assessments.
An automated oscillometric sphygmomanometer device was used to measure the subjects' systolic and diastolic blood pressure in office after approximately 5 minutes of rest in the seated position.
The primary endpoint is the change in office-measured (mean of last 2 of 5 unattended measurements using an automated oscillometric sphygmomanometer device after approximately 5 minutes of rest in the seated position) systolic blood pressure (SBP) from baseline to the end of Study Week 8.
Secondary endpoints of this study were: • (a) Change in 24-hour ambulatory blood pressure monitoring (ABPM) parameters (systolic and diastolic) from baseline to the end of Study Week 7. • (b) Change in office-measured SBP from baseline to the end of Study Weeks 1, 2, 3, 4, 5, 6, and 7. • (c) Change in office-measured diastolic blood pressure (DBP) from baseline to the end of Study Weeks 1, 2, 3, 4, 5, 6, 7, and 8. • (d) Proportion of subjects who achieve office-measured BP of ≤130/80 mm Hg by the end of Study Week 8.

[1] = 100 mg QD Part 1, Week 8, Parts 1 & 2 model, FAS

For CC(=O)N[C@H]1CC[C@H](NC(=O)CN2CCN(c3nncc(-c4ccc(C)cc4)n3)CC2)CC1 [Compound A HBr], the “Placebo-adjusted reduction in AOBP SBP, concomitant use of thiazide diuretics” value (50 mg QD, Part 1, Week 8) was −12.9 mmHg, the “Difference from placebo in change in blood pressure” value (50 mg QD, Thiazide No) was −4.3 and the “Difference from placebo in change in blood pressure” value (50 mg QD, Thiazide Yes) was −13.2*. The “Seated AOBP DBP change from baseline (CFB), Mean (SD)” value (“Seated AOBP DBP change … (SD)” for short) (50 mg QD, Week 1, Part 1, FAS) was −4.34 (8.86) mmHg, the “Seated AOBP DBP, Mean (SD)” value (50 mg QD, Week 1, Part 1, FAS) was 80.54 (7.58) mmHg and the “Seated AOBP SBP change from baseline (CFB), Mean (SD)” value (“Seated AOBP SBP change … (SD)” for short) (50 mg QD, Week 1, Part 1, FAS) was −8.32 (14.27) mmHg. The “Seated AOBP SBP, Mean (SD)” value (50 mg QD, Week 1, Part 1, FAS) was 133.50 (12.23) mmHg, the “Seated AOBP DBP change … (SD)” value (50 mg QD, Week 2, Part 1, FAS) was −5.91 (7.38) mmHg and the “Seated AOBP DBP, Mean (SD)” value (50 mg QD, Week 2, Part 1, FAS) was 78.96 (8.27) mmHg. For the same compound, the “Seated AOBP SBP change … (SD)” value (50 mg QD, Week 2, Part 1, FAS) was −9.54 (13.78) mmHg, the “Seated AOBP SBP, Mean (SD)” value (50 mg QD, Week 2, Part 1, FAS) was 132.29 (10.55) mmHg and the “Seated AOBP DBP change … (SD)” value (50 mg QD, Week 3, Part 1, FAS) was −3.84 (8.83) mmHg. The “Seated AOBP DBP, Mean (SD)” value (50 mg QD, Week 3, Part 1, FAS) was 81.04 (9.15) mmHg, the “Seated AOBP SBP change … (SD)” value (50 mg QD, Week 3, Part 1, FAS) was −9.50 (16.67) mmHg and the “Seated AOBP SBP, Mean (SD)” value (50 mg QD, Week 3, Part 1, FAS) was 132.32 (13.45) mmHg. For the same compound, the “LSM Δ with Placebo, seated AOBP DBP (MMRM)” value (50 mg QD, Week 4, Part 1, FAS) was −3.95 mmHg, the “Modelled (MMRM) LSM (SEM) change from baseline, seated AOBP DBP” value (50 mg QD, Week 4, Part 1, FAS) was −4.49 (1.41) mmHg and the “Seated AOBP DBP change … (SD)” value (50 mg QD, Week 4, Part 1, FAS) was −5.30 (8.33) mmHg. The “Seated AOBP DBP, Mean (SD)” value (50 mg QD, Week 4, Part 1, FAS) was 79.57 (8.36) mmHg, the “Seated AOBP SBP change … (SD)” value (50 mg QD, Week 4, Part 1, FAS) was −9.07 (15.77) mmHg and the “Seated AOBP SBP, Mean (SD)” value (50 mg QD, Week 4, Part 1, FAS) was 132.75 (11.85) mmHg. For the same compound, the “Seated AOBP DBP change … (SD)” value (50 mg QD, Week 5, Part 1, FAS) was −6.10 (7.22) mmHg, the “Seated AOBP DBP, Mean (SD)” value (50 mg QD, Week 5, Part 1, FAS) was 78.58 (7.53) mmHg and the “Seated AOBP SBP change … (SD)” value (50 mg QD, Week 5, Part 1, FAS) was −8.38 (15.19) mmHg. The “Seated AOBP SBP, Mean (SD)” value (50 mg QD, Week 5, Part 1, FAS) was 134.27 (15.39) mmHg, the “Seated AOBP DBP change … (SD)” value (50 mg QD, Week 6, Part 1, FAS) was −6.26 (8.48) mmHg and the “Seated AOBP DBP, Mean (SD)” value (50 mg QD, Week 6, Part 1, FAS) was 78.63 (8.17) mmHg. For the same compound, the “Seated AOBP SBP change … (SD)” value (50 mg QD, Week 6, Part 1, FAS) was −10.72 (14.86) mmHg, the “Seated AOBP SBP, Mean (SD)” value (50 mg QD, Week 6, Part 1, FAS) was 131.11 (12.49) mmHg and the “Seated AOBP DBP change … (SD)” value (50 mg QD, Week 7, Part 1, FAS) was −3.75 (11.03) mmHg. The “Seated AOBP DBP, Mean (SD)” value (50 mg QD, Week 7, Part 1, FAS) was 80.88 (11.41) mmHg, the “Seated AOBP SBP change … (SD)” value (50 mg QD, Week 7, Part 1, FAS) was −7.69 (18.91) mmHg and the “Seated AOBP SBP, Mean (SD)” value (50 mg QD, Week 7, Part 1, FAS) was 133.19 (16.39) mmHg. For the same compound, the “LSM Δ from Placebo, change from baseline in seated AOBP SBP (MMRM)” value (50 mg QD, Week 8, Part 1, FAS) was −9.58 mmHg, the “LSM Δ with Placebo, seated AOBP DBP (MMRM)” value (50 mg QD, Week 8, Part 1, FAS) was −5.46 mmHg and the “Modelled (MMRM) LSM (SEM) change from baseline, seated AOBP DBP” value (50 mg QD, Week 8, Part 1, FAS) was −7.09 (1.70) mmHg. For the same compound, the “Modelled (MMRM) LSM (SEM) change from baseline, seated AOBP SBP” value (50 mg QD, Week 8, Part 1, FAS) was −13.69 (2.67) mmHg, the “Seated AOBP DBP change … (SD)” value (50 mg QD, Week 8, Part 1, FAS) was −8.05 (9.13) mmHg and the “Seated AOBP DBP, Mean (SD)” value (50 mg QD, Week 8, Part 1, FAS) was 76.82 (9.82) mmHg. For the same compound, the “Seated AOBP SBP change … (SD)” value (50 mg QD, Week 8, Part 1, FAS) was −13.18 (17.17) mmHg, the “Seated AOBP SBP, Mean (SD)” value (50 mg QD, Week 8, Part 1, FAS) was 128.64 (13.69) mmHg and the “Subjects with seated AOBP SBP/DBP ≤130/80 mmHg: No” value (50 mg QD, Week 8, Part 1, FAS) was 16 (57.1) n (%). For the same compound, the “Subjects with seated AOBP SBP/DBP ≤130/80 mmHg: Yes” value (50 mg QD, Week 8, Part 1, FAS) was 12 (42.9) n (%), the “Modelled (MMRM) LSM (SEM) change from baseline, seated AOBP DBP” value (100 mg QD Part 1, Week 4, Parts 1 & 2 model, FAS) was −5.88 (1.49) mmHg and the “Modelled (MMRM) LSM (SEM) change from baseline, seated AOBP DBP” value [1] was −4.57 (1.53) mmHg. The “Modelled (MMRM) LSM (SEM) change from baseline, seated AOBP SBP” value [1] was −12.08 (2.68) mmHg.
